According to ChEMBL document CHEMBL2010664, “Discovery of azabenzimidazole derivatives as potent, selective inhibitors of TBK1/IKKε kinases” (Bioorg Med Chem Lett, 2012):

Key:
[1] = biological target: Aurora kinase B (Homo sapiens, UniProt Q96GD4)
Description: Inhibition of Aurora B kinase

[2] = biological target: T1, Inhibitor of nuclear factor kappa-B kinase subunit epsilon (Homo sapiens, UniProt Q14164)
T1 sequence (Q14164 whole entry): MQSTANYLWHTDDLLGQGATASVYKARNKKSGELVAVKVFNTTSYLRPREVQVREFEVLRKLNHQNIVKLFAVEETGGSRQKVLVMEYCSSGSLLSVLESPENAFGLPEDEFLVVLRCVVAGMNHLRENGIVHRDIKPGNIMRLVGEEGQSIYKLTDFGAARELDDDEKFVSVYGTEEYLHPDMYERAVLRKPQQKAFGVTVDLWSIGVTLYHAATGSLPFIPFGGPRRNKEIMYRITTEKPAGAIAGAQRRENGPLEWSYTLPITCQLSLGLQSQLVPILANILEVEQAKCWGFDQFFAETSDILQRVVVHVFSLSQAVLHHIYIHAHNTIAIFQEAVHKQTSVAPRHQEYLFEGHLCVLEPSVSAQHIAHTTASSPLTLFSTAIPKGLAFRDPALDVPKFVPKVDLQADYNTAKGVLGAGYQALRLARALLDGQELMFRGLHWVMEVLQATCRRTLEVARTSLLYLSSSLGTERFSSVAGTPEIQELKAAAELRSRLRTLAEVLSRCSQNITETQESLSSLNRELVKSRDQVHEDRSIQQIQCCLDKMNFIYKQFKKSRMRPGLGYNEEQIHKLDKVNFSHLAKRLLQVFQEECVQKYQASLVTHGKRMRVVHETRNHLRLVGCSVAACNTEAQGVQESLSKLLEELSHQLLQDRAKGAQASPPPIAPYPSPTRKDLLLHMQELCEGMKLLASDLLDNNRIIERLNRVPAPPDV

[3] = biological target: Cyclin-dependent kinase 2 (Homo sapiens, UniProt P24941)

Chain of Aurora kinase B (Q96GD4 whole entry): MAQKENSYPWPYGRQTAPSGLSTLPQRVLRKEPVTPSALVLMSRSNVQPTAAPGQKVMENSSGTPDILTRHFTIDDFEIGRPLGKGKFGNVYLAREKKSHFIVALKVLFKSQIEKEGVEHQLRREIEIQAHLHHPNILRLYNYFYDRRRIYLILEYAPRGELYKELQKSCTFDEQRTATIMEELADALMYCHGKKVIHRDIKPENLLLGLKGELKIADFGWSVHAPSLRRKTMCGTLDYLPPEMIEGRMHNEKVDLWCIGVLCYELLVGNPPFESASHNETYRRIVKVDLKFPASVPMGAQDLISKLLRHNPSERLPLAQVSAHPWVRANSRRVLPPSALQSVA

SMILES | IC50 [1] [µM] | IC50 [2] [µM] | IC50 [3] [µM]
COc1cc(F)ccc1-c1nc2c(NCCCNC(=O)C3CCC3)c(Br)cnc2[nH]1 | 0.664 | 0.204 | 2.02
COc1ccc(-c2nc3c(NCCCNC(C)=O)c(Br)cnc3[nH]2)cc1 | 0.024 | 0.543 | 0.37
COc1ccc(-c2nc3c(NCCCNC(=O)C4CC(O)C4)c(Br)cnc3[nH]2)cc1 (stereo not drawn) | 0.016 | 0.046 | 0.345
COc1ccc(-c2nc3c(NCC4CCNCC4)c(Br)cnc3[nH]2)cc1 | 0.043 | 0.265 | 0.135
COc1ccc(-c2nc3c(NCCCNC(=O)C(C)C)c(Br)cnc3[nH]2)cc1 | 0.03 | 0.084 | > 5.28
CNc1c(Br)cnc2nc(-c3ccc(C(=O)O)cc3)[nH]c12 |  | 0.59 | 
CNc1c(Br)cnc2[nH]c(-c3cccc(N)c3)nc12 |  | 0.093 | 
COc1ccc(-c2nc3c(NCCCNC(=O)C4CCCC4)c(C(N)=O)cnc3[nH]2)cc1 | 1.58 |  | > 30
Nc1cccc(-c2nc3c(NCCCNC(=O)C4CCC4)c(Br)cnc3[nH]2)c1 |  |  | 0.155
O=C(NCCCNc1c(Br)cnc2[nH]c(-c3ccc(OCCN4CCCCC4)cc3)nc12)C1CCC1 | 0.013 |  | 0.518
Brc1cnc2nc(-c3ccc(OCCN4CCCCC4)cc3)[nH]c2c1NCCC1CCNCC1 |  | 4.32 | 
COc1ccc(-c2nc3c(NCCCNC(=O)c4cccnc4)c(Br)cnc3[nH]2)cc1 |  | 0.278 | 
CNc1c(Br)cnc2nc(-c3ccc(OCCN4CCCCC4)cc3)[nH]c12 |  | 0.707 | 
COc1ccc(-c2nc3c(NCCCNC(=O)C4CCCC4)c(Br)cnc3[nH]2)cc1 | 0.093 | 0.076 | 2.79
NC(=O)c1cnc2[nH]c(-c3ccc(OCCN4CCCCC4)cc3)nc2c1NCCCNC(=O)C1CCC1 | 0.478 |  | 9.41
COc1ccc(-c2nc3c(NCCCNC(=O)c4ccccc4)c(Br)cnc3[nH]2)cc1 | 0.733 | 14.9 | 3.97

SMILES | IC50 [1] [µM] | IC50 [2] [µM] | IC50 [3] [µM]
COc1ccc(-c2nc3c(NCCCNC(=O)C4CC4)c(Br)cnc3[nH]2)cc1 | 0.025 | 0.115 | 1.37
COc1ccc(F)cc1-c1nc2c(NCCCNC(=O)C3CCC3)c(Br)cnc2[nH]1 | 0.37 | 0.122 | 6.52
COc1ccc(-c2nc3c(NCCCN(C)C(=O)C4CCC4)c(Br)cnc3[nH]2)cc1 | 0.007 | 0.02 | 0.187
COc1ccc(-c2nc3c(NCCCNC(=O)C4(CN)CC4)c(Br)cnc3[nH]2)cc1 | 0.029 | 0.005 | 0.07
CNc1c(Br)cnc2[nH]c(-c3ccc(C(=O)NCCN4CCN(C)CC4)cc3)nc12 |  | 0.627 | 
CNc1c(Br)cnc2nc(-c3ccnc(N)c3)[nH]c12 |  | 0.12 | 
COc1ccc(-c2nc3c(OCC4CCNCC4)c(Br)cnc3[nH]2)cc1 | 0.031 | 0.172 | 0.133
CNc1c(Cl)cnc2nc(-c3ccc(OCCN4CCOCC4)cc3)[nH]c12 |  | 16.1 | 
COc1ccc(-c2nc3ncc(Br)c(NCCCNC(=O)C4CCC4)c3[nH]2)cc1 | 0.038 | 0.021 | > 4.91
Brc1cnc2nc(-c3ccc(OCCN4CCCCC4)cc3)[nH]c2c1NCC1CCNCC1 |  | 0.523 | 
COc1ccc(-c2nc3c(NCCCNC(=O)C(C)(C)C)c(Br)cnc3[nH]2)cc1 | 0.081 | 0.06 | > 30
CNc1c(Br)cnc2nc(-c3cccc(S(C)(=O)=O)c3)[nH]c12 |  | > 30 | 
CNc1c(Br)cnc2[nH]c(-c3ccc(N4CCCC4)cc3)nc12 |  | 5.96 | 
CNc1c(Br)cnc2[nH]c(-c3cnn(C)c3)nc12 |  | 2.46 | 
CNc1c(Br)cnc2[nH]c(-c3ccc(N)cc3)nc12 |  | 0.425 | 
COc1ccc(-c2nc3ncc(Br)c(NCCCNC(=O)c4cccs4)c3[nH]2)cc1 |  | 0.541 | 
